In ChEMBL document CHEMBL1201862, “PubChem BioAssay data set” (2004):
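48-hour exposure; five concentrations; linearly interpolated endpoints. GI50 is the concentration that inhibits growth by half.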 The source made the active and inactive calls. Rule as the data show it: active = GI50 up to about 1.1 µM and inactive = higher.

Tests used:
Assay in all cases: inhibition of tumour cell growth, NCI panel, 48 h
[1] = test system: HT-29
[2] = test system: HCT-15
[3] = test system: OVCAR-8
[4] = test system: MDA-MB-435
[5] = test system: SK-MEL-2
[6] = test system: ACHN
[7] = test system: UACC-257
[8] = test system: CAKI-1
[9] = test system: A498
[10] = test system: RXF 393
[11] = test system: NCI-H226
[12] = test system: UACC-62
[13] = test system: LOX IMVI
[14] = test system: KM12
[15] = test system: COLO 205
[16] = test system: NCI-H522
[17] = test system: SK-MEL-5
[18] = test system: HCC 2998
[19] = test system: NCI-H460
[20] = test system: OVCAR-5

SMILES | GI50 [1] | GI50 [2] | GI50 [3] | GI50 [4] | GI50 [5] | GI50 [6] | GI50 [7] | GI50 [8] | GI50 [9] | GI50 [10] | GI50 [11] | GI50 [12] | GI50 [13] | GI50 [14] | GI50 [15] | GI50 [16] | GI50 [17] | GI50 [18] | GI50 [19] | GI50 [20]
CC(=O)CC[N+](C)(C)C | 32.7 µM (inactive) | 22.7 µM | 33.5 µM (inactive) | 37.8 µM (inactive) | 36.4 µM (inactive) | 17 µM (inactive) | 25.8 µM (inactive) | 1.9 µM (inactive) | 69.2 µM (inactive) | 12.9 µM (inactive) | 53 µM (inactive) | 26.8 µM (inactive) | 14.1 µM (inactive) | 77.3 µM (inactive) | 9.04 µM (inactive) | 0.929 µM (active) | 30.3 µM (inactive) | 52.5 µM (inactive) | 65.8 µM (inactive) | 44.6 µM (inactive)
CCOC(=O)c1c(Br)c(-c2ccc(OC)cc2)c(Br)n1C | 12.7 µM (inactive) | 8.61 µM | 27.1 µM (inactive) | 2.37 µM (inactive) | 19.2 µM (inactive) | 29.6 µM (inactive) | 23.2 µM (inactive) | > 10 µM (inactive) | 14.6 µM (inactive) | 17.3 µM (inactive) | 22.2 µM (inactive) | 5.09 µM (inactive) | 7.14 µM (inactive) | 11.4 µM (inactive) | 27.6 µM (inactive) | 6.62 µM (inactive) | 10.6 µM (inactive) | > 10 µM (inactive) | 52.2 µM (inactive) | 72.3 µM (inactive)
C=CCC1(Sc2ccccn2)Sc2ccc3ccccc3c2-c2c(ccc3ccccc23)S1 | > 100 µM (inactive) | > 100 µM | > 100 µM (inactive) | > 100 µM (inactive) | > 100 µM (inactive) | > 100 µM (inactive) | > 100 µM (inactive) | > 100 µM (inactive) | > 100 µM (inactive) | > 100 µM (inactive) | > 100 µM (inactive) | > 100 µM (inactive) | > 100 µM (inactive) | > 100 µM (inactive) | > 100 µM (inactive) | > 100 µM (inactive) | > 100 µM (inactive) | > 100 µM (inactive) | > 100 µM (inactive) | > 100 µM (inactive)
O=C(NCc1ccccc1)c1cc2ccccc2o/c1=N\c1ccccc1F | 45.8 µM (inactive) | 51.2 µM | 14.3 µM (inactive) | 26.3 µM (inactive) | 28.1 µM (inactive) | 19.5 µM (inactive) | 34.4 µM (inactive) | 14 µM (inactive) | 38.6 µM (inactive) | 21.5 µM (inactive) | 31.6 µM (inactive) | 29.9 µM (inactive) | 14.9 µM (inactive) | 25.7 µM (inactive) | 26.4 µM (inactive) | 22 µM (inactive) | 19.1 µM (inactive) | 23.1 µM (inactive) | 41.7 µM (inactive) | 43.4 µM (inactive)
O=C(NCCCNCCNC(=O)c1cc(-c2ccccc2)nc2ccccc12)c1cc(-c2ccccc2)nc2ccccc12 | 1.52 µM (inactive) | 1.52 µM | 1.77 µM (inactive) | 1.72 µM (inactive) | 2.24 µM (inactive) | 1.79 µM (inactive) | 1.67 µM (inactive) | 2.26 µM (inactive) | 2.29 µM (inactive) | 2 µM (inactive) | 2.32 µM (inactive) | 2.22 µM (inactive) | 1.58 µM (inactive) | 1.91 µM (inactive) | 1.72 µM (inactive) | 1.75 µM (inactive) | 1.64 µM (inactive) | 1.7 µM (inactive) | 1.83 µM (inactive) | –
CCc1nc(N)nc(N)c1-c1ccc2nnn(O)c2c1 | > 89.1 µM (inactive) | > 100 µM | > 100 µM (inactive) | > 100 µM (inactive) | > 100 µM (inactive) | > 100 µM (inactive) | > 100 µM (inactive) | > 100 µM (inactive) | > 100 µM (inactive) | > 100 µM (inactive) | > 100 µM (inactive) | > 100 µM (inactive) | > 100 µM (inactive) | > 100 µM (inactive) | > 100 µM (inactive) | > 100 µM (inactive) | > 100 µM (inactive) | > 100 µM (inactive) | > 72.8 µM (inactive) | > 100 µM (inactive)
NC1=CN(Cc2ccccc2)C2=N/C(=C\c3ccccc3)C(=O)N12 | > 100 µM (inactive) | > 100 µM | > 100 µM (inactive) | 50.1 µM (inactive) | > 100 µM (inactive) | > 100 µM (inactive) | 40.1 µM (inactive) | > 100 µM (inactive) | > 100 µM (inactive) | > 100 µM (inactive) | > 100 µM (inactive) | > 100 µM (inactive) | > 100 µM (inactive) | 96.8 µM (inactive) | > 100 µM (inactive) | 51.3 µM (inactive) | 66.5 µM (inactive) | > 100 µM (inactive) | > 100 µM (inactive) | > 100 µM (inactive)
CCOP(=O)(OCC)/C(=C/n1c(=S)[nH]c2ccccc21)C(=O)OC | > 100 µM (inactive) | 11.7 µM | > 100 µM (inactive) | > 100 µM (inactive) | > 100 µM (inactive) | > 100 µM (inactive) | > 100 µM (inactive) | > 100 µM (inactive) | > 100 µM (inactive) | > 100 µM (inactive) | > 100 µM (inactive) | > 100 µM (inactive) | > 100 µM (inactive) | > 100 µM (inactive) | > 100 µM (inactive) | > 100 µM (inactive) | > 100 µM (inactive) | 51.9 µM (inactive) | 10 µM (inactive) | > 100 µM (inactive)
COc1ccc([C@H]2CC(=O)C[C@H](c3ccc(OC)cc3)C23C(=O)c2ccccc2C3=O)cc1 | 3.46 µM (inactive) | 4.02 µM | 9.75 µM (inactive) | 1.95 µM (inactive) | 3.3 µM (inactive) | 16.6 µM (inactive) | 2.29 µM (inactive) | 3.06 µM (inactive) | > 100 µM (inactive) | 2.92 µM (inactive) | 6.11 µM (inactive) | 4 µM (inactive) | 4.16 µM (inactive) | 4.13 µM (inactive) | 2.64 µM (inactive) | 3.16 µM (inactive) | 3.46 µM (inactive) | 8.55 µM (inactive) | 3.65 µM (inactive) | 12.6 µM (inactive)
COC(=O)c1ccccc1C1CN=NC12Cc1cccc(C)c1C2=O (stereo not drawn) | 57.7 µM (inactive) | 46.5 µM | 42.4 µM (inactive) | 37.4 µM (inactive) | 46.1 µM (inactive) | 35.3 µM (inactive) | 37.3 µM (inactive) | 46.1 µM (inactive) | 54.6 µM (inactive) | 11.5 µM (inactive) | 49.7 µM (inactive) | 34.7 µM (inactive) | 55 µM (inactive) | 26.8 µM (inactive) | > 10 µM (inactive) | 27.3 µM (inactive) | 34.4 µM (inactive) | > 100 µM (inactive) | 88.1 µM (inactive) | > 100 µM (inactive)
COc1ccc(Nc2nc(N)c(C(=O)c3ccco3)s2)cc1 | 7.78 µM (inactive) | 6.58 µM | > 100 µM (inactive) | 3.15 µM (inactive) | 23 µM (inactive) | 47.8 µM (inactive) | 41.7 µM (inactive) | 50 µM (inactive) | 13.2 µM (inactive) | 31.8 µM (inactive) | 33.9 µM (inactive) | 45.8 µM (inactive) | 32.5 µM (inactive) | 8.59 µM (inactive) | 13.4 µM (inactive) | 7.71 µM (inactive) | 14.5 µM (inactive) | 15.7 µM (inactive) | 13.7 µM (inactive) | > 83.2 µM (inactive)
CC(C)[C@@H]1NC(=O)[C@@H]2N=C(O[C@H]2C)[C@H](C(C)C)NC(=O)C2N=C1O[C@H]2C | > 100 µM (inactive) | > 100 µM | > 100 µM (inactive) | > 100 µM (inactive) | > 100 µM (inactive) | > 100 µM (inactive) | > 100 µM (inactive) | > 100 µM (inactive) | > 100 µM (inactive) | > 100 µM (inactive) | > 100 µM (inactive) | > 100 µM (inactive) | > 100 µM (inactive) | > 100 µM (inactive) | > 100 µM (inactive) | > 100 µM (inactive) | > 100 µM (inactive) | > 100 µM (inactive) | > 100 µM (inactive) | > 100 µM (inactive)
O=C1/C(=C/c2ccc([N+](=O)[O-])cc2)CNC/C1=C\c1ccc([N+](=O)[O-])cc1 | 1.41 µM (inactive) | 1.13 µM | 3.13 µM (inactive) | 10.4 µM (inactive) | 31.8 µM (inactive) | 12.3 µM (inactive) | 45.5 µM (inactive) | 1.79 µM (inactive) | 16.6 µM (inactive) | 12.2 µM (inactive) | 15 µM (inactive) | 12.3 µM (inactive) | 2.09 µM (inactive) | 1.36 µM (inactive) | 5.62 µM (inactive) | 2.52 µM (inactive) | 10.8 µM (inactive) | 5.62 µM (inactive) | 2.59 µM (inactive) | 22.8 µM (inactive)
C[C@@H]1C[C@@H]2OC(=O)[C@]3(C)[C@H]2[C@@H](OC3(C)O)[C@]2(C)C(=O)C=C[C@@H]12 (stereo partly drawn) [TENULIN] | 15.2 µM (inactive) | 10.1 µM | 32.4 µM (inactive) | 24.2 µM (inactive) | 19.8 µM (inactive) | 19.5 µM (inactive) | 18 µM (inactive) | 22.1 µM (inactive) | 22.6 µM (inactive) | 18.7 µM (inactive) | 74 µM (inactive) | 16.8 µM (inactive) | 19.2 µM (inactive) | 23.6 µM (inactive) | 14.2 µM (inactive) | 6.67 µM (inactive) | 20.2 µM (inactive) | 17.2 µM (inactive) | – | 19.9 µM (inactive)
